Laboratory results reported in patent publication US9006431B2, “Crystalline form of pemirolast” (Cardoz AB, priority 2009, dated 2015).
Each block holds one molecule with its values, some of them ahead of it.

Tests used:
[1] = Stability study at different moisture levels and temperatures (appearance, Karl Fischer, PXRD); assay type: physicochemical
Description: To determine the relative stability of pemirolast sodium obtained in accordance with the method described in Example 10 (hemihydrate), Example 11 (heptahydrate) and Example 5 (amorphous form) at different moisture levels, a stability study was performed.
The study was performed under four different storage conditions with different moisture levels and temperatures, 40° C./75% RH, 25° C./60% RH, room temperature/10-20% RH, and room temperature/>90% RH. The substances were stored open in glass beakers and samples were withdrawn periodically for analysis (time zero, 1 week and 4 weeks).
At the time intervals mentioned, the visual appearance was inspected by (a) placing a spatula of substance on a white background, munktell filter (no smearing or crushing of the substances was performed), and (b) by microscopy equipped with plane polarized light. The water content was also analysed using Karl Fischer titration. PXRD was conducted at time zero and at 4 weeks.

[2] = Storage under ambient conditions followed by FT-Raman; assay type: physicochemical; settings: about a month
Description: FT-Raman spectra were recorded on a Bruker RFS 100 FT-Raman system with a near infrared Nd:YAG laser operating at 1064 nm and a liquid nitrogen-cooled germanium detector. 64 scans with a resolution of 2 cm^−1 were accumulated in the range from 3500 to 50 cm^−1. In general, 100 mW laser power was used.
The Raman spectrum was recorded directly after recrystallisation. All samples were then stored under ambient conditions on a shelf in a fume hood. […] This is shown in FIG. 4, where the lower spectrum accords to the earlier measurement and the upper spectrum accords to the later measurement.

[3] = In vitro dissolution study (Ph. Eur. Apparatus 2, paddle); assay type: physicochemical; settings: 30 mg, 50 mM phosphate buffer pH 6.8, 50 rpm, 37° C.
Description: An in vitro dissolution study was performed on pemirolast potassium (obtained Chemtronica AB, Stockholm, Sweden) and pemirolast sodium hemihydrate (prepared in accordance with the method described in Example 10 above) using standard Ph. Eur. Methodology (Apparatus 2 (paddle), Ph. Eur., 2.9.3, using 50 mM phosphate buffer pH 6.8 as a dissolution medium. A stirring rate of 50 rpm was employed. The temperature was 37° C.). Tests were performed in triplicate. 30 mg of each substance was added to separate vessels and the timer started. Sampling was at regular intervals using a 1 mL plastic syringe, depending on how quickly the substance appeared to dissolve (by visual inspection). The sample was filtered into HPLC vials using a small diameter filter. The samples were analysed by reversed phase HPLC. Quantification of pemirolast was performed by means of UV detection.

[4] = cited from earlier work
[5] = Aqueous solubility (shake 24 hours, HPLC of filtrate); assay type: physicochemical; settings: doubly distilled water, 22° C.
Description: About 40 mg of a sample (obtained by way of the procedure described in Example 2 above) was dispersed in 0.25 mL of doubly distilled water. The suspension was shaken at 22° C. for 24 hours. Afterwards, a fast solid/liquid-separation was performed using an Eppendorf Thermomixer Comfort (400 rpm). The suspensions were filtered with Millipore Centrifugal Filter Devices (PTFE filter; 0.2 μm) in a Centrifuge Hettich EBA 12 R (15,000 g, 1 minute, 22° C.). The concentration of the sample in the filtrate was analyzed by HPLC, and the solid phase was analyzed by FT-Raman spectroscopy.

[6] = Dynamic Vapor Sorption (DVS) hygroscopicity classification; assay type: physicochemical; settings: for relative humidity above which significant water uptake starts: DVS; for hygroscopicity class by DVS analysis: mass change at 85% RH compared to the starting material
Description: HPLC was performed on a TSP HPLC (UV3000, AS3000, P4000, SCM1000 Soft. Version 4.1); column: Waters, X Terra MS C18 4.6×100 mm, 5μ (CC01); mobile phase A: H2O+0.1% TFA; mobile phase B: acetonitrile+0.1% TFA; reference concentration: ca. 0.09 mg/mL; retention time: 6.6 minutes; gradient: 0.0 min: A:95%/B:5%; 20.0 min: A:5%/B:95%; 21.0 min: A:95%/B:5%; 30.0 min: A:95%/B:5%; flow: 1.0 mL/minute; injection volume: 10 μL; wavelength: 254 nm. Dynamic Vapor Sorption (DVS) measurements were carried out on a Sorption Measurement System SPS11-100n. The sample was placed in an aluminum crucible and the sample was allowed to equilibrate at a given RH before starting a pre-defined humidity program. (1) 2 h at 50% RH; (2) 50→0% RH (5%/h); (3) 5 h at 0% RH; (4) 0→95% RH (5%/h); (5) 5 h at 95% RH; (6) 95→50% RH (5%/h); (7) 2 h at 50% RH. Hygroscopicity was classified according to the European Pharmacopoeia (storage at 80% RH/25° C. for 24 hours). The mass change at 85% RH was used for classification, as compared to the starting material (at ambient conditions)—very hygroscopic: increase of mass ≧15%; hygroscopic: increase of mass is less than 15% and equal to or greater than 2%; slightly hygroscopic: increase of mass is less than 2% and equal to or greater than 0.2%; deliquescent: sufficient water is absorbed to form a liquid.

[7] = humans; cited from earlier work
[8] = PXRD of 30 mg tablets after tabletting; assay type: physicochemical; settings: crushed and intact
Description: For all tablets, friability and crushing resistance tests were conducted according to standard methodology (Ph. Eur. 6.0, 2.9.7 and 2.9.8, respectively, with the exception that the crushing resistance results are presented in kp rather than N according to the Ph. Eur.). PXRD was also performed on the 30 mg tablets after tabletting on both crushed and intact tablets. In view of the endotherms observed (and reported in Example 11 above) by DSC for the heptahydrate, it was expected that this may limit the ability of that polymorph to form tablets by compression (given that internal temperatures of 70° C. can easily be reached during the compression process). It was therefore decided to analyse the 30 mg tablets by PXRD as stated above.

plasma tryptase = test: Plasma tryptase levels in subjects with CRP above 0.9 mg/L; assay type: in vivo
[9] = listed as potassium salt of pemirolast
[10] = listed as Example 2, Sodium Hemihydrate
[11] = listed as Example 1, Sodium Hemihydrate

SMILES: Cc1cccn2c(=O)c(-c3nnn[n-]3)cnc12.[Na+] [amorphous form of pemirolast sodium, reference compound]
solid phase stability ([1]; 60% RH and above): crystallized
solid phase stability ([1]; dry conditions (10-20% RH)): remains amorphous
physical stability (Raman spectrum changed) [2]: physically unstable

SMILES: Cc1cccn2c(=O)c(-c3nnn[nH]3)cnc12 [pemirolast potassium, reference compound]
dissolution behaviour ([3]; listed as potassium salt): dissolved as soon as it was added to the dissolution medium
hygroscopicity (reported) ([4]; Pharmaceutical Interview Form): hygroscopic
aqueous solubility (reported) ([4]; source: Pharmaceutical Interview Form): 179 to 182 mg/mL
aqueous solubility [5, 9]: 192.38 mg/mL
pH of the saturated solution [5, 9]: 9.0
relative humidity above which significant water uptake starts [6]: above 70 % RH
hygroscopicity class by DVS analysis [6]: very hygroscopic (very hygroscopic: increase of mass ≧15%)
plasma concentration profile [7]: sharp plasma concentration peaks

SMILES: Cc1cccn2c(=O)c(-c3nnn[nH]3)cnc12 [pemirolast, 9-Methyl-3-(1H-tetrazol-5-yl)-4H-pyrido[1,2-a]pyrimidin-4-one]
effect on plasma tryptase levels (plasma tryptase): does not concomitantly reduce plasma tryptase levels

More lines, main results first:

solid phase stability ([1]; relative humidity of 60% and less (down to 10-20% RH), up to 4 weeks): stable
water content (Karl Fischer) on storage, unchanged ([1]; relative humidity of 60% and less, up to 4 weeks): 2.8%
phase transitions during tabletting (PXRD) [8]: no phase transitions occurred
aqueous solubility [5, 10]: 23.64 mg/mL
pH of the saturated solution [5, 10]: 8.0
relative humidity above which significant water uptake starts [6, 11]: above 80 % RH
SMILES: Cc1cccn2c(=O)c(-c3nnn[nH]3)cnc12 [pemirolast sodium hemihydrate, Pemirolast Sodium Hemihydrate]
dissolution behaviour ([3]; listed as sodium hemihydrate salt, Sodium Hemihydrate): formed large aggregates and appeared to be more difficult to dissolve
solid phase stability ([1]; 75% RH and above): converted to a previously unknown solid state form
hygroscopicity class by DVS analysis [6, 11]: hygroscopic (hygroscopic: increase of mass is less than 15% and equal to or greater than 2%)

solid phase stability ([1]; 60% RH, up to 4 weeks): stable
solid phase stability ([1]; dry conditions (10-20% RH)): converted to the hemihydrate form
phase transitions during tabletting (PXRD) [8]: no phase transitions occurred
SMILES: Cc1cccn2c(=O)c(-c3nn[n-]n3)cnc12.O.O.O.O.O.O.O.[Na+] [pemirolast sodium heptahydrate, Pemirolast Sodium Heptahydrate]
solid phase stability ([1]; 75% RH): converted partially to the new solid state form
solid phase stability ([1]; 90% RH): no signs of phase transitions were observed
